Laboratory results: patent publication US20080171784A1, “Methods For the Stabilization of Atorvastatin” (ZENTIVA, A.S., priority 2003, published 2008)
Structures can show the parent of a compound that is named as a salt. One block for each molecule: values may come before it.

Columns and labels:
Type in all cases: physicochemical
[1] = Example 7: test of stability under reduced pressure
Experimental: A pure amorphous atorvastatin substance was close din a tempered box under air pressure of 5.5-7.5 kPa. The partial pressure of oxygen was estimated as 1.2-1.5 kPa
The measurement has given the following results:
For comparison, sample 0010903/18 was kept in a thermostat at 80° C. under normal atmospheric pressure, i.e. partial pressure of oxygen about 18 kPa for 160 hours.

[2] = Example 2: amorphous atorvastatin sealed in aluminium foil with oxygen absorbers, 40° C., 1.5 months (HPLC)
Experimental: (§1) Amorphous atorvastatin (1 g) was sealed in a sealable aluminium foil together with the oxygen absorber Ageless® Z100 (Mitsubishi) or with the absorber of oxygen and carbon dioxide Ageless® E100 (Mitsubishi) and the sample was heated at 40° C. for 1.5 months. The reference sample was prepared and heated in the same way without the use of absorbers.

[3] = Stability tests of solid amorphous atorvastatin in different packages and oxygen partial pressures
Experimental: In order to make the carried-out experiments more precise, stability tests of solid amorphous atorvastatin and of several selected dosage forms were established. As to containers, polyethylene (PE) and an aluminium foil with a sealable PE layer (Al+PE) were used. Some of the stability data were determined in nitrogen atmosphere (N2) (with a partial pressure of oxygen of roughly 3 kPa).

[4] = Example 1: amorphous atorvastatin sealed in aluminium foil with oxygen absorbers, 80° C., 72 hr (HPLC)
Experimental: as §1, with “80°” for “40°”, “72 hr.” for “1.5 months.”

[5] = Oxidation of 1% atorvastatin solution in ethyl acetate-acetonitrile (1:1) at 40° C.
Experimental: In order to precisely determine the decomposition mechanism, the following experiments examining only the oxidative decomposition of atorvastatin were carried out. A recent publication/Pharmaceutical Development and Technology, 7(1), 1-32 (2002)/described a set of experiments which are suitable for the recognition of oxidation of substances and for the determination of its mechanism.
The following experiments were carried out:
a. oxidation of a 1% solution of atorvastatin in the system of ethyl acetate-acetonitrile (1:1) at 40° C. using a radical initiator (2,2′-azobiscyanopentanoic acid) at a pressure of 1 MPa of oxygen; b. oxidation of a 1% solution of atorvastatin in the system of ethyl acetate-acetonitrile (1:1) at 40° C. without a radical initiator; c. control experiment in the system of ethyl acetate-acetonitrile (1:1) at 40° C. using a radical initiator (2,2′-azobiscyanopentanoic acid) in an inert atmosphere of argon (the partial pressure of oxygen found as being about 1 kPa).

[6] = Set of stress tests of atorvastatin (HPLC)
Experimental: The following experiments were carried out in order to determine the instability of atorvastatin. The purpose was to find out which factors lead to the degradation of the product. • 1. Set of stress tests. The stock solution of atorvastatin (2 ml) was gradually subjected to the following experiments: a. boil (24 hr) with 2 ml of 0.2 N hydrochloric acid, b. boil (24 hr) with 2 ml of 0.2 N acetic acid, c. boil (24 hr) with 2 ml of 0.2 N sodium hydroxide, d. boil (24 hr) with 2 ml of 4% hydrogen peroxide, e. boil (24 hr) with 2 ml of water, f. irradiation with UV radiation (5 hr), g. irradiation with visible light (24 hr), h. solid substance heated at 100° C. for 24 hr, i. solid substance subjected to UV radiation (5 hr), j. solid substance subjected to visible light (24 hr).

[7] = 40° C., 1.5 months, oxygen absorber Ageless Z100
[8] = 40° C., 1.5 months, oxygen and carbon dioxide absorber Ageless E100
[9] = 40° C., 1.5 months, reference sample without absorbers
[10] = 80° C., 72 hr, oxygen absorber Ageless Z100
[11] = 80° C., 72 hr, oxygen and carbon dioxide absorber Ageless E100
[12] = 80° C., 72 hr, reference sample without absorbers

Molecule: hemicalcium salt of (3R,5R) 7-[3-phenyl-4-phenylcarbamoyl-2-(4-fluorophenyl)-5-isopropylpyrrol-1-yl]-3,5-dihydroxyheptanoic acid [amorphous atorvastatin]
Total Impurities ([1]; air pressure 5.5-7.5 kPa (PO 1.2-1.5 kPa), 55 hrs, 60-65 ° C.): 0.33% | Total Impurities ([1]; air pressure 5.5-7.5 kPa (PO 1.2-1.5 kPa), 160 hrs, 80-82 ° C.): 0.37% | Total Impurities ([1]; air pressure 5.5-7.5 kPa (PO 1.2-1.5 kPa), 23 days, 20-25 ° C.): 0.29% | Total Impurities ([1]; air pressure 5.5-7.5 kPa (PO 1.2-1.5 kPa), 42 days, 40-42 ° C.): 0.35% | Total Impurities ([1]; normal atmospheric pressure, PO about 18 kPa, 80° C., 160 hours): 1.92% | Lactone of Atorvastatin [2, 7]: 0% | Total Impurities [2, 7]: 0.36% | Lactone of Atorvastatin [2, 8]: 0.06% | Total Impurities [2, 8]: 0.46% | Lactone of Atorvastatin [2, 9]: 0.22% | Total Impurities [2, 9]: 1.55% | Lactone of Atorvastatin ([2]; Initial): 0% | Total Impurities ([2]; Initial): 0.49% | Impurities ([3]; 0 months, entry): 0.21% | Impurities ([3]; 3 months, 5 ° C., package 2x RE, PO 18 kPa): 0.39% | Impurities ([3]; 3 months, 5 ° C., package PE + Al, PO 3 kPa (N2)): 0.34% | Impurities ([3]; 3 months, 5 ° C., package PE + Al, PO 18 kPa): 0.34% | Impurities ([3]; 3 months, 25 ° C., package 2x PE, PO 18 kPa): 0.77% | Impurities ([3]; 3 months, 25 ° C., package PE + Al, PO 3 kPa (N2)): 0.43% | Impurities ([3]; 3 months, 25 ° C., package PE + Al, PO 18 kPa): 0.63% | Impurities ([3]; 6 months, 5 ° C., package 2x PE, PO 18 kPa): 0.83% | Impurities ([3]; 6 months, 5 ° C., package PE + Al, PO 3 kPa (N2)): 0.44% | Impurities ([3]; 6 months, 5 ° C., package PE + Al, PO 18 kPa): 0.71% | Lactone of Atorvastatin [4, 10]: 0.19% | Total Impurities [4, 10]: 0.64% | Lactone of Atorvastatin [4, 11]: 0.14% | Total Impurities [4, 11]: 0.60% | Lactone of Atorvastatin [4, 12]: 0.33% | Total Impurities [4, 12]: 1.32% | Lactone of Atorvastatin ([4]; Initial): 0% | Total Impurities ([4]; Initial): 0.49%

Impurities ([5]; 0 hours, entry sample): 0.49% | Impurities ([5]; 24 hours, radical initiator no, PO 1 MPa, 40° C.): 9.27% | Impurities ([5]; 24 hours, radical initiator yes, PO 0.001 MPa (argon), 40° C.): 0.98% | Impurities ([5]; 24 hours, radical initiator yes, PO 1 MPa, 40° C.): 6.42% | Impurities ([5]; 48 hours, radical initiator yes, PO 0.001 MPa (argon), 40° C.): 1.38% | Impurities ([5]; 48 hours, radical initiator yes, PO 1 MPa, 40° C.): 24.37% | Impurities ([5]; 72 hours, radical initiator yes, PO 1 MPa, 40° C.): 30.93% | Content of Atorvastatin ([6]; 5 hr under UV in water): 64.3% | Content of Atorvastatin ([6]; solid substance 5 hr, UV): 99.3% | Content of Atorvastatin ([6]; solid substance 24 hr, 100° C.): 96.3% | Content of Atorvastatin ([6]; solid substance 24 hr, visible light): 96.5% | Content of Atorvastatin ([6]; solution, 24 hr in the light (visible)): 104.5% | Content of Atorvastatin ([6]; stock solution, 24 hr boil in 0.1 N AcOH): 83.2% | Content of Atorvastatin ([6]; stock solution, 24 hr boil in 0.1 N HCl): 2.1% | Content of Atorvastatin ([6]; stock solution, 24 hr boil in 0.1 N NaOH): 72.0% | Content of Atorvastatin ([6]; stock solution, 24 hr boil in 2% H2O2): 54.8% | Content of Atorvastatin ([6]; stock solution, 24 hr boil in water): 88.4%
Molecule: CC(C)c1c(C(=O)Nc2ccccc2)c(-c2ccccc2)c(-c2ccc(F)cc2)n1CC[C@@H](O)C[C@@H](O)CC(=O)O [atorvastatin, hemicalcium salt of (3R,5R) 7-[3-phenyl-4-phenylcarbamoyl-2-(4-fluorophenyl)-5-isopropylpyrrol-1-yl]-3,5-dihydroxyheptanoic acid]
